Test results from EP0426574A1, “Thiazole derivatives and antiulcer agents containing the same” (TERUMO KABUSHIKI KAISHA, priority 1989, dated 1991).
Structures can show the parent of a compound that is named as a salt.

What follows are compounds tested on ethanol hydrochloric acid ulcer (assay: Inhibitory activity against ethanol hydrochloric acid ulcer). Details: SD male rats fasted 24 hours; 30mg/kg orally, one hour before 150 mM hydrochloric acid in 60% ethanol; ulcer index = total lesion length, one hour later.
Assay type: in vivo
Experimental: To SD male rats (weighing 150-250 g) fasted for 24 hours was administered orally a thiazole derivative of the invention. One hour later, a hydrochloric acid solution in ethanol (containing 150 mM hydrochloric acid in 60% ethanol) was orally given in a volume of 0.5 ml/100 g bodyweight.
One hour later, the animals were sacrificed with ether. The stomach was excised and, after formalin treatment, measured for the length (mm) of lesions developed in glandular portions of the stomach. Total length of the lesions per animal was taken as ulcer index.
Percent inhibition of ulceration as referred to in the table is a value obtained by reducing from 1 the ulcer index for the rat with a thiazole derivative of the invention orally given divided by the ulcer index for the orally non-administered rat and multiplying the value by 100. The calculation is conducted by the formula shown below. [formula]
With `c1ccc(CNc2nc3cccnc3s2)cc1` [Example 3, 2-benzylamino[5,4-b]pyridothiazole hydrochloride] the “Percent inhibition of ulceration (%)” value was 87.2%. With `COc1ccc(Nc2nc3cccnc3s2)cc1` [Example 5, 2-(4-methoxyphenyl)-amino[5,4-b]pyridothiazole hydrochloride] the “Percent inhibition of ulceration (%)” value was 51.2%. For `CN(C)c1ccc(Nc2nc3cccnc3s2)cc1` [Example 4, 2-(4-dimethylaminophenyl)amino[5,4-b]pyridothiazole hydrochloride], the “Percent inhibition of ulceration (%)” value was 45.5%. In the case of `c1ccc(Nc2nc3cccnc3s2)cc1` [Example 2, 2-phenylamino[5,4-b]pyridothiazole hydrochloride], the “Percent inhibition of ulceration (%)” value is reported as 88.8%. With `CNc1nc2cccnc2s1` [Example 1, 2-methylamino[5,4-b]pyridothiazole hydrochloride] the “Percent inhibition of ulceration (%)” value was 100.0%.
